Data: ChEMBL document CHEMBL1201862, “PubChem BioAssay data set” (2004)
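In this assay, cells in 96-well plates receive the compound at five concentrations for 48 hours. Endpoints are linearly interpolated between the surrounding concentrations. The concentration for 50% growth inhibition is given as GI50.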 Calls of active or inactive are those of the source. Rule as the data show it: active = GI50 up to about 1.1 µM and inactive = higher.

Assays:
Experiment in all cases: NCI-60 cell line screen, 48 h
[1] = tested on: OVCAR-8
[2] = tested on: CAKI-1
[3] = tested on: SNB-75
[4] = tested on: TK-10
[5] = tested on: SR
[6] = tested on: KM12
[7] = tested on: SK-MEL-2
[8] = tested on: LOX IMVI
[9] = tested on: SK-OV-3
[10] = tested on: HCT-116
[11] = tested on: HOP-92
[12] = tested on: SF-268
[13] = tested on: SF-539
[14] = tested on: SK-MEL-5
[15] = tested on: MCF7
[16] = tested on: A498
[17] = tested on: UACC-257
[18] = tested on: DU-145
[19] = tested on: MDA-MB-435

| SMILES | GI50 [1] | GI50 [2] | GI50 [3] | GI50 [4] | GI50 [5] | GI50 [6] | GI50 [7] | GI50 [8] | GI50 [9] | GI50 [10] | GI50 [11] | GI50 [12] | GI50 [13] | GI50 [14] | GI50 [15] | GI50 [16] | GI50 [17] | GI50 [18] | GI50 [19] |
| --- | --- | --- | --- | --- | --- | --- | --- | --- | --- | --- | --- | --- | --- | --- | --- | --- | --- | --- | --- |
| Cc1cccc(C2SCc3nc4ccccc4n32)c1 (stereo not drawn) | 36.1 µM (inactive) | 31 µM (inactive) | 2 µM (inactive) | 21.9 µM (inactive) | 17.1 µM (inactive) | 19.8 µM (inactive) | 18.5 µM (inactive) | 28.6 µM (inactive) | 24.7 µM (inactive) | 17.7 µM (inactive) | 14.7 µM (inactive) | 36.7 µM (inactive) | 33.8 µM (inactive) | 14.3 µM (inactive) |  |  |  |  |  |
| NC1=NC(=O)C2(NN1)c1ccccc1-c1ccccc12 | > 10 µM (inactive) | > 10 µM (inactive) | > 10 µM (inactive) | > 10 µM (inactive) | > 10 µM (inactive) | > 10 µM (inactive) | > 10 µM (inactive) | > 10 µM (inactive) | > 10 µM (inactive) | > 10 µM (inactive) | > 10 µM (inactive) | > 10 µM (inactive) | > 10 µM (inactive) | > 10 µM (inactive) | 3.26 µM (inactive) | 3.94 µM (inactive) |  |  |  |
| CC(C)C(NCc1c2ccccc2[n+](C)c2ccccc12)C(=O)O (stereo not drawn) | 3.78 µM (inactive) | 3.48 µM (inactive) | 1.5 µM (inactive) | 7.91 µM (inactive) | 0.748 µM (active) | 4.91 µM (inactive) | 6.04 µM (inactive) | 5.42 µM (inactive) | 15.5 µM (inactive) | 2.67 µM (inactive) | 3.57 µM (inactive) | 2.99 µM (inactive) | 5.94 µM (inactive) | 3.31 µM (inactive) |  | 7.26 µM (inactive) | 5.51 µM (inactive) |  |  |
| COc1cccc2nc3cc(C)c(C)cc3nc12 | > 100 µM (inactive) | > 100 µM (inactive) | > 100 µM (inactive) | > 100 µM (inactive) | > 100 µM (inactive) | > 100 µM (inactive) | > 100 µM (inactive) | 96.8 µM (inactive) | 78.3 µM (inactive) | > 100 µM (inactive) | > 100 µM (inactive) | > 100 µM (inactive) | > 100 µM (inactive) | 97.5 µM (inactive) |  | > 100 µM (inactive) | > 100 µM (inactive) |  |  |
| COC(=O)c1cc2c3ccccc3n(C(C)=O)c2cn1 | 56.4 µM (inactive) | 23.2 µM (inactive) | 25.6 µM (inactive) | 45.8 µM (inactive) | 45.6 µM (inactive) | 80.5 µM (inactive) | > 100 µM (inactive) | 63.4 µM (inactive) | > 100 µM (inactive) | > 100 µM (inactive) | 49 µM (inactive) |  | > 100 µM (inactive) | > 100 µM (inactive) |  |  | > 100 µM (inactive) |  |  |
| N#CC(N)(C(=O)C(=O)NCCCNC(=O)C(=O)C(N)(C#N)c1ccc(Cl)cc1)c1ccc(Cl)cc1 (stereo not drawn) | > 100 µM (inactive) | > 100 µM (inactive) | > 100 µM (inactive) | > 100 µM (inactive) | > 100 µM (inactive) | > 100 µM (inactive) | > 100 µM (inactive) | > 100 µM (inactive) | > 100 µM (inactive) | > 100 µM (inactive) | > 100 µM (inactive) | > 100 µM (inactive) | > 100 µM (inactive) | > 100 µM (inactive) |  | > 100 µM (inactive) | > 100 µM (inactive) |  |  |
| O=P(O)(CN1CCN(CP(=O)(O)c2ccccc2)CCN(CP(=O)(O)c2ccccc2)CC1)c1ccccc1 | > 100 µM (inactive) | 45.8 µM (inactive) | > 100 µM (inactive) | 92.5 µM (inactive) |  | 47.9 µM (inactive) |  | 67.3 µM (inactive) | > 100 µM (inactive) | 36.8 µM (inactive) |  | > 100 µM (inactive) | 67.1 µM (inactive) | 69.3 µM (inactive) | 28.1 µM (inactive) | 9.16 µM (inactive) |  | > 100 µM (inactive) | 93.1 µM (inactive) |
| CC1OC(OC2C(OC(=O)[C@]34CCC(C)(C)CC3C3=CCC5[C@@]6(C)C[C@H](O)[C@H](OC7OC(CO)C(O)C(O)C7N)[C@@](C)(C(=O)O)C6CC[C@@]5(C)C3(C)CC4)OCC(O)C2O)C(O)C(O)C1OC1OCC(O)C(O)C1O (stereo partly drawn) | > 100 µM (inactive) | > 100 µM (inactive) | > 100 µM (inactive) | > 100 µM (inactive) |  | > 100 µM (inactive) | > 100 µM (inactive) | > 100 µM (inactive) | > 100 µM (inactive) |  | > 100 µM (inactive) | > 100 µM (inactive) | > 100 µM (inactive) | > 100 µM (inactive) |  | > 100 µM (inactive) | > 100 µM (inactive) |  |  |
| Cc1cn(C2CC3C(COCN3O)O2)c(=O)[nH]c1=O (stereo not drawn) | > 100 µM (inactive) |  | 97.3 µM (inactive) | > 100 µM (inactive) | > 100 µM (inactive) | > 100 µM (inactive) |  | > 100 µM (inactive) | > 100 µM (inactive) | > 100 µM (inactive) |  | > 100 µM (inactive) | > 100 µM (inactive) | > 100 µM (inactive) |  |  | > 100 µM (inactive) |  |  |
